Experimental data as given in US12486298B2, “Fucosyltransferase specific inhibition using fucose mimetics” (THE FLORIDA INTERNATIONAL UNIVERSITY BOARD OF TRUSTEES, priority 2020, dated 2025).

Assays:
[1] = biological target: T1, fucosyltransferase IX (FTIX) (Homo sapiens, UniProt Q9Y231); experiment: FTIX exofucosylation of mesenchymal stem cells (MSC), Le^x by flow cytometry; type: cell-based; conditions: MSCs; same conditions as RPMI-8402 cells
T1 sequence (Q9Y231 1-359): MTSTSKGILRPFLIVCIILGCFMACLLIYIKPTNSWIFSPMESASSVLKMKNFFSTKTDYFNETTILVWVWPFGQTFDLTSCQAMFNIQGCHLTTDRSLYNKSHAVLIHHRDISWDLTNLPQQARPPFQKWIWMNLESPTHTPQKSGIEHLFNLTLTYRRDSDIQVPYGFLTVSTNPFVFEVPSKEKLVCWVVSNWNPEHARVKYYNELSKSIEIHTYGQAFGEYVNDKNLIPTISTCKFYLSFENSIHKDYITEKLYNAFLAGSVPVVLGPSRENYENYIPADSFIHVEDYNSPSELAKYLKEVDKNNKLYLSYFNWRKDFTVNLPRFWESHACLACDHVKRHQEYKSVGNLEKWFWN
Experimental: (§1) A Canto II (BD Biosciences) flow cytometer was utilized for flow cytometry and the data acquired was analyzed using FlowJo Software (Treestar). Cells were stained using antibodies specific to sLe^X (Alexa-Fluor 488 Mouse Anti-Human CD15s (BD Biosciences)), or Le^X (APC anti-human CD15 (SSEA-1) Antibody (BioLegend)).
(§2) Cells of the RPMI-8402 cell line and MSC cell line were treated with either 0.3 ug of fucosyltransferase VI (FTVI), 2.7 ug of fucosyltransferase VII (FTVII), 1.0 ug fucosyltransferase IX (FTIX) or buffer-only at 37° C. for 60 minutes. All reactions contained at 1×10^6 cells/30 ul in HBSS with 10 mM Hepes, 0.1% Human Serum Albumin, and 1.0 mM GDP fucose (GDP-Fuc) (Carbosynth) and the appropriate fucosytransferase. Then, mimetic 1 was added to each of the treatment groups in molar equivalents with respect to GDP-Fuc with each of the fucosytransferases. […]
(§3) Mimetic 1 (FIG. 1) was tested as an inhibitor of FT-mediated exofucosylation on these cells and the extent of fucosylation was monitored using antibodies that detect the creation of the relevant fucosylated epitopes, i.e., sLe^x or Le^x. […]

[2] = test system: E-selectin bearing HUVEC; experiment: Parallel plate flow chamber: exofucosylated RPMI-8402 cells on TNFα-stimulated HUVEC under shear; type: cell-based, human; conditions: for number of interacting RPMI-8402 cells on HUVEC: shear 0.5-8 dynes/cm^2
Experimental: Human umbilical vein endothelial cells (HUVEC, Lonza) were cultured in Endothelial Cell Growth Media (R&D Systems) in Bioflux microfluidic chambers that had been previously coated with 250 ug/ml fibronectin (BD Biosciences). Then 4 hours prior to rolling assay, cells were activated with 40 ng/ml TNFα (R&D Systems). Different cell subsets, based on exofucoslylation/mimetic conditions, were then infused into the chamber at a concentration of 2×10^6/ml and shear stress was applied from 0.5-8 dynes/cm^2. Then RPMI-8402 subsets were loaded into chambers containing monolayers of E-selectin bearing HUVECs with an initial shear rate of 0.5 dyne/cm^2, with stepwise increments in the shear rate up to 8 dynes/cm^2. The number of tethering/interacting RPMI-8402 cells on HUVEC were quantified at each shear rate and averaged across three different fields of view.
As sLe^x is the primary ligand for E-selectin which is induced on endothelial cells by inflammatory cytokine, e.g., TNFα the biological impacts of mimetic 1's inhibition of sLe^x binding to E-selectin under hemodynamic shear was evaluated. To this end, RPMI-8402 cells were left untreated or exofucosylated with 1.0 mM GDP-Fuc, 1.0 mM GDP-Fuc and 2.0 mM mimetic 1 or preincubated with FTVI and 2.0 mM mimetic 1 for 45 min followed by addition of 1.0 mM GDP-Fuc for 1 h and the presence of sLe^x determined by flow cytometry (FIGS. 6A and 6B). The RPMI-8402 cells treated as outlined above were then loaded in a parallel plate flow chamber seeded with monolayers of human umbilical vein endothelial cells (HUVEC) that had been stimulated with TNFα (FIG. 6C). The RPMI cells were introduced under defined fluid shear conditions to determine inhibition.

[3] = biological target: T1, fucosyltransferase IX (FTIX); experiment: FTIX exofucosylation of RPMI-8402 cells, Le^x by flow cytometry; type: cell-based
Experimental: as §1, §2, §3

[4] = biological target: T2, fucosyltransferase VII (FTVII) (Homo sapiens, UniProt Q11130); experiment: FTVII exofucosylation of mesenchymal stem cells (MSC), sLe^x by flow cytometry; type: cell-based; conditions: MSCs
T2 sequence (Q11130 37-342 limits assumed): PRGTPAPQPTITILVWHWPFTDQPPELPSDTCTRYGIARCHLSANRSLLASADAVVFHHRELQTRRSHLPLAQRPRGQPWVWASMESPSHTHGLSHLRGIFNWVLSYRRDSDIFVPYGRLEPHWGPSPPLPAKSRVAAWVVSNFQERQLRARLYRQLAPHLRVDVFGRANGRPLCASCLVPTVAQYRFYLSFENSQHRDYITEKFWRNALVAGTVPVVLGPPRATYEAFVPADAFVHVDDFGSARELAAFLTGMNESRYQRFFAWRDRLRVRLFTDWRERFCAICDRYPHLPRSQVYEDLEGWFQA
Experimental: as §1, §2, §3

inhibition of FTIX production of Le^x [1]: did not inhibit FTIX production of Le^x
effect of pre-incubation on FTIX-mediated exofucosylation ([3]; pre-incubation with 2.0 mM mimetic 1 prior to addition of GDP-Fuc): no effect
inhibition of FTVII sLe^x production ([4]; 1.0 mM GDP-Fuc with 1.0 mM or 2.0 mM mimetic 1): inhibition was clear
level of FTVII inhibition in pre-incubation reactions ([4]; pre-incubation with 2.0 mM mimetic 1, then 1.0 mM GDP-Fuc): stronger
Structure (SMILES): CC1OC2Oc3ccc(CC(=O)O)cc3SC2C(O)C1O (centres unmarked) [mimetic 1]
number of interacting RPMI-8402 cells on HUVEC ([2]; exofucosylated with FTVI, 1.0 mM GDP-Fuc and 2.0 mM mimetic 1): reduced the number of interacting cells
ability of cells to adhere to HUVEC ([2]; physiologically relevant shear conditions): reduced the ability of cells to adhere to HUVEC
number of interacting RPMI-8402 cells on HUVEC ([2]; preincubation with FTVI and 2.0 mM mimetic 1 for 45 min, then 1.0 mM GDP-Fuc for 1 h): reduced the number of interacting cells
inhibition of FTIX-mediated exofucosylation (Le^x creation) ([3]; RPMI-8402 cells, 1.0 mM GDP-Fuc with 1.0 mM or 2.0 mM mimetic 1): did not inhibit FTIX-mediated exofucosylation
